From PMC6001238, “Iterative Chemical Engineering of Vancomycin Leads to Novel Vancomycin Analogs With a High in Vitro Therapeutic Index” (Frontiers in Microbiology, 2018)
Converted amounts (≈) assume the structure as drawn. Where two headings read alike, the source gives them in different places.

What was measured:
[1] = test system: L1210, CEM and HeLa cell lines; experiment: Cytostatic activity, average or summary over L1210, CEM and HeLa; type: cell-based
How it was run: (§1)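 Test compounds, serially diluted, received an equal volume of cell suspension at 300,000–500,000 cells/mL. After 37°C incubation (2 days for L1210, 3 for CEM, 4 for HeLa), cells were enumerated by Coulter counting and 50%-inhibitory concentrations calculated per cell type.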

VE 149 (VanB) = experiment: MIC, VanB-type VRE strain VE 149; type: cell-based, Enterococcus; details: Enterococcus; VE 149, VanB; read-out: MIC
Experimental: (§2) The minimum inhibitory concentration (MIC) was determined using the broth microdilution method according to the antimicrobial susceptibility testing standards of the clinical and laboratory standards institute ([Clinical and Laboratory Standards Institute [CLSI], 2012]). Ultrapure water and non-inoculated broth were used as controls. In one case, a final concentration of 10 μM vancomycin was included with the vancomycin analog or control antibiotic.

VE 152 (VanB) = experiment: MIC, VanB-type VRE strain VE 152; type: cell-based, Enterococcus; details: Enterococcus; VE 152, VanB; read-out: MIC
Experimental: as §2

E. faecalis VSE 1 = experiment: MIC, broth microdilution, vancomycin-sensitive E. faecalis (VSE 1); type: cell-based, Enterococcus faecalis
How it was run: (§3)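 MIC values come from broth microdilution run to CLSI susceptibility-testing standards. Ultrapure water and uninoculated broth served as controls. In one series, vancomycin at a final 10 μM was co-dosed with the analogue or comparator antibiotic.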

VE 150 (VanB) = experiment: MIC, VanB-type VRE strain VE 150; type: cell-based, Enterococcus; details: Enterococcus; VE 150, VanB; read-out: MIC
Experimental: as §2

MRSA KS2 = experiment: MIC, broth microdilution, MRSA KS2; type: cell-based, Staphylococcus aureus
How it was run: as §3

MRSA KS1 = experiment: MIC, broth microdilution, MRSA KS1; type: cell-based, Staphylococcus aureus
How it was run: as §3

VE 148 (VanB) = experiment: MIC, VanB-type VRE strain VE 148; type: cell-based, Enterococcus; details: Enterococcus; VE 148, VanB; read-out: MIC
Experimental: as §2

E. faecalis VRE 29 = experiment: MIC, broth microdilution, vancomycin-resistant E. faecalis VRE 29 (VanA); type: cell-based, Enterococcus faecalis
How it was run: as §3

[2] = test system: 24 clinical MRSA isolates; experiment: MIC against a set of 24 clinical MRSA isolates (range, MIC50, TI); type: cell-based, Staphylococcus aureus
Experimental: as §2

MRSA KS89 = experiment: MIC, broth microdilution, MRSA KS89; type: cell-based, Staphylococcus aureus
How it was run: as §3

[3] = test system: human cervix carcinoma (HeLa) cells; experiment: Cytostatic activity, HeLa cell proliferation; type: cell-based; details: Homo sapiens, HeLa, 96 h; mean ± SD of three experiments; highest concentration tested 250 µM; 4 days; read-out: Toxicity (IC50) HeLa
How it was run: as §1

E. faecalis VRE 37 = experiment: MIC, broth microdilution, vancomycin-resistant E. faecalis VRE 37 (VanA); type: cell-based, Enterococcus faecalis
How it was run: as §3

[4] = test system: S. aureus VSSA (ATCC 6538); experiment: MIC, broth microdilution, vancomycin-sensitive S. aureus (VSSA/MSSA, ATCC 6538); type: cell-based, Staphylococcus aureus
How it was run: as §3

33 clinical VRE isolates = experiment: MIC against a set of 33 clinical VRE isolates (range, MIC50, TI); type: cell-based, Enterococcus faecalis
Experimental: as §2

VE 157 (VanB) = experiment: MIC, VanB-type VRE strain VE 157; type: cell-based, Enterococcus; details: Enterococcus; VE 157, VanB; read-out: MIC
Experimental: as §2

E. faecalis VRE 53 = experiment: MIC, broth microdilution, vancomycin-resistant E. faecalis VRE 53 (VanA); type: cell-based, Enterococcus faecalis
How it was run: as §3

MRSA KS6 = experiment: MIC, broth microdilution, MRSA KS6; type: cell-based, Staphylococcus aureus
How it was run: as §3

[5] = test system: Murine leukemia (L1210) cells; experiment: Cytostatic activity, L1210 cell proliferation; type: cell-based; details: Mus musculus, L1210, 48 h; mean ± SD of three experiments; highest concentration tested 250 µM; 2 days; read-out: Toxicity (IC50) L1210
How it was run: as §1

S. aureus VRSA = experiment: MIC, broth microdilution, vancomycin-resistant S. aureus (VRSA); type: cell-based, Staphylococcus aureus
How it was run: as §3

VE 82 (VanC1) = experiment: MIC, VanC1-type VRE strain VE 82; type: cell-based, Enterococcus gallinarum; details: Enterococcus gallinarum; VE 82, VanC1; read-out: MIC
Experimental: as §2

S. aureus VISA/HIP5827 = experiment: MIC, broth microdilution, vancomycin-intermediate S. aureus VISA HIP5827; type: cell-based, Staphylococcus aureus
How it was run: as §3

E. faecalis VRE 6 = experiment: MIC, broth microdilution, vancomycin-resistant E. faecalis VRE 6 (VanA); type: cell-based, Enterococcus faecalis
How it was run: as §3

MRSA = experiment: Minimum bactericidal concentration against MRSA; type: cell-based, Staphylococcus aureus
Experimental: Plates were incubated overnight at 37°C and colony growth was inspected.

[6] = test system: human T-lymphocyte (CEM) cells; experiment: Cytostatic activity, CEM cell proliferation; type: cell-based; details: Homo sapiens, CCRF-CEM, 72 h; mean ± SD of three experiments; highest concentration tested 250 µM; 3 days; read-out: Toxicity (IC50) CEM
How it was run: as §1

Question: CN(C)c1cc(NC(=O)CNC(C)(C)C)c(O)c2c1C[C@H]1C[C@H]3[C@H](N(C)C)C(O)=C(C(N)=O)C(=O)[C@@]3(O)C(O)=C1C2=O [Tigecycline, reference compound] was tested. Which IC50 ([1]; average IC50 used for TI in Table S5, >250 entered as 250, read-out: IC50) did it give?
Answer: The IC50 was 14 µM.

Question: And the IC50 ([1]; average of L1210, CEM and HeLa, read-out: Toxicity (IC50) Average)?
Answer: Its IC50 is 14 µM.

Question: And the MIC (VE 149 (VanB))?
Answer: Its MIC is 1.56 µM (≈ 0.914 µg/mL).

Question: What about the MIC (VE 152 (VanB)) of the same molecule?
Answer: The MIC was 1.56 µM (≈ 0.914 µg/mL).

Question: What about the MIC (E. faecalis VSE 1; VSE1, Enterococcus faecalis VSE 1 (vancomycin-sensitive), read-out: MIC) of the same molecule?
Answer: The MIC was 3.13 µM (≈ 1.83 µg/mL).

Question: And the “MIC-fold improvement vs. vancomycin” value (E. faecalis VSE 1; VSE 1, ratio of MIC of vancomycin and MIC of analogue)?
Answer: Its value is 0.5.

Question: And the MIC (VE 150 (VanB))?
Answer: The MIC was 1.56 µM (≈ 0.914 µg/mL).

Question: What about the “MIC-fold improvement vs. vancomycin” value (MRSA KS2; MRSA KS2, ratio of MIC of vancomycin and MIC of analogue) of the same molecule?
Answer: Its value is 0.5.

Question: What about the MIC (MRSA KS2; Staphylococcus aureus MRSA KS2, read-out: MIC) of the same molecule?
Answer: Its MIC is 1.56 µM (≈ 0.914 µg/mL).

Question: And the “MIC-fold improvement vs. vancomycin” value (MRSA KS1; MRSA KS1, ratio of MIC of vancomycin and MIC of analogue)?
Answer: The value was 0.5.

Question: And the MIC (MRSA KS1; Staphylococcus aureus MRSA KS1, read-out: MIC)?
Answer: Its MIC is 1.56 µM (≈ 0.914 µg/mL).

Question: What about the MIC (VE 148 (VanB)) of the same molecule?
Answer: The MIC was 3.13 µM (≈ 1.83 µg/mL).

Question: And the MIC (E. faecalis VRE 29; Enterococcus faecalis VRE 29 (vancomycin-resistant), read-out: MIC)?
Answer: Its MIC is 3.13 µM (≈ 1.83 µg/mL).

Question: What about the “MIC-fold improvement vs. vancomycin” value (E. faecalis VRE 29; VRE 29, ratio of MIC of vancomycin and MIC of analogue) of the same molecule?
Answer: Its value is 128.

Question: What about the “MIC Range” value ([2]; 24 clinical MRSA isolates) of the same molecule?
Answer: The value was 0.78 to 6.25 µM.

Question: What about the MIC50 ([2]; Staphylococcus aureus, median MIC, 24 clinical MRSA isolates, read-out: MIC50) of the same molecule?
Answer: Its MIC50 is 1.56 µM (≈ 0.914 µg/mL).

Question: And the “TI (IC50/MIC50)” value ([2]; in vitro therapeutic index, MRSA)?
Answer: The value was 9.

Question: And the “MIC-fold improvement vs. vancomycin” value (MRSA KS89; MRSA KS8 (head; KS89 in title), ratio of MIC of vancomycin and MIC of analogue)?
Answer: The value was 0.5.

Question: And the MIC (MRSA KS89; Staphylococcus aureus MRSA KS8 (head; KS89 in title), read-out: MIC)?
Answer: The MIC was 1.56 µM (≈ 0.914 µg/mL).

Question: What about the IC50 [3] of the same molecule?
Answer: The IC50 was 24 ± 17 µM.

Question: And the MIC (E. faecalis VRE 37; Enterococcus faecalis VRE 37 (vancomycin-resistant), read-out: MIC)?
Answer: Its MIC is 3.13 µM (≈ 1.83 µg/mL).

Question: What about the “MIC-fold improvement vs. vancomycin” value (E. faecalis VRE 37; VRE 37, ratio of MIC of vancomycin and MIC of analogue) of the same molecule?
Answer: The value was 128.

Question: What about the MIC ([4]; ATCC6538, Staphylococcus aureus VSSA, read-out: MIC) of the same molecule?
Answer: Its MIC is 3.13 µM (≈ 1.83 µg/mL).

Question: And the “MIC-fold improvement vs. vancomycin” value ([4]; VSSA, ratio of MIC of vancomycin and MIC of analogue)?
Answer: The value was 0.3.

Question: And the “MIC Range” value (33 clinical VRE isolates; 33 clinical VRE isolates)?
Answer: The value was no more than 0.02 to 0.78 µM.

Question: And the MIC50 (33 clinical VRE isolates; Enterococcus, median MIC, 33 clinical VRE isolates, read-out: MIC50)?
Answer: Its MIC50 is 0.2 µM (≈ 0.117 µg/mL).

Question: What about the “TI (IC50/MIC50)” value (33 clinical VRE isolates; in vitro therapeutic index, VRE) of the same molecule?
Answer: Its value is 70.

Question: What about the MIC (VE 157 (VanB)) of the same molecule?
Answer: Its MIC is 1.56 µM (≈ 0.914 µg/mL).

Question: And the MIC (E. faecalis VRE 53; Enterococcus faecalis VRE 53 (vancomycin-resistant), read-out: MIC)?
Answer: Its MIC is 3.13 µM (≈ 1.83 µg/mL).

Question: And the “MIC-fold improvement vs. vancomycin” value (E. faecalis VRE 53; VRE 53, ratio of MIC of vancomycin and MIC of analogue)?
Answer: The value was 128.

Question: And the “MIC-fold improvement vs. vancomycin” value (MRSA KS6; MRSA KS6, ratio of MIC of vancomycin and MIC of analogue)?
Answer: The value was 0.5.

Question: What about the MIC (MRSA KS6; Staphylococcus aureus MRSA KS6, read-out: MIC) of the same molecule?
Answer: Its MIC is 1.56 µM (≈ 0.914 µg/mL).

Question: And the IC50 [5]?
Answer: The IC50 was 9.4 ± 3.2 µM.

Question: What about the MIC (S. aureus VRSA; Staphylococcus aureus VRSA, read-out: MIC) of the same molecule?
Answer: Its MIC is 3.13 µM (≈ 1.83 µg/mL).

Question: What about the “MIC-fold improvement vs. vancomycin” value (S. aureus VRSA; VRSA, ratio of MIC of vancomycin and MIC of analogue) of the same molecule?
Answer: Its value is 32.

Question: What about the MIC (VE 82 (VanC1)) of the same molecule?
Answer: Its MIC is 0.78 µM (≈ 0.457 µg/mL).

Question: And the MIC (S. aureus VISA/HIP5827; Staphylococcus aureus VISA/HIP5827, read-out: MIC)?
Answer: Its MIC is 3.13 µM (≈ 1.83 µg/mL).

Question: And the “MIC-fold improvement vs. vancomycin” value (S. aureus VISA/HIP5827; VISA/HIP5827, ratio of MIC of vancomycin and MIC of analogue)?
Answer: Its value is 2.

Question: What about the MIC (E. faecalis VRE 6; Enterococcus faecalis VRE 6 (vancomycin-resistant), read-out: MIC) of the same molecule?
Answer: The MIC was 3.13 µM (≈ 1.83 µg/mL).

Question: What about the “MIC-fold improvement vs. vancomycin” value (E. faecalis VRE 6; VRE 6, ratio of MIC of vancomycin and MIC of analogue) of the same molecule?
Answer: Its value is 64.

Question: And the “MBC relative to MIC” value (MRSA)?
Answer: The value was “more than four times higher than the corresponding MIC”.

Question: What about the IC50 [6] of the same molecule?
Answer: The IC50 was 7.1 ± 2.1 µM.
